Columns and labels:
Dopamine D2 receptor = molecular target: T1, Dopamine D2 receptor (Homo sapiens, UniProt P14416); assay: Dopamine D2 receptor binding assay ([125I]iodospiperone); conditions: relative Ki scale of Table 5; read-out: Relative D2 Receptor Binding Affinity Ki
T1 construct: purchased Receptor Biology (now owned by NEN) RBHD2CM
Description: The assay buffers used are 50 mM Tris-HCl pH 7.4, 120 mM NaCl, 5 mM KCl, 5 mM MgCl2, 1 mM EDTA for the Dopamine D2s receptor binding assay. […] The membranes used are from Receptor Biology (now owned by NEN), Cat # RBHD2CM for the D2 receptor.
Compounds are obtained as 10 mM stocks in 100% DMSO. They are diluted to 1 mM in 100% DMSO by adding 180 μL DMSO to 20 μL of stock in 96 well plates using a multidrop. […] This is done using a TECAN robot.
The radioligand is diluted in assay buffer to provide 0.1 nM for the D2 assay. Each vial of membranes is diluted up to 92 mL in assay buffer. The final assay volume is 250 μL consisting of 210 μl of diluted membranes, 20 μL of compound or 10% DMSO for total binding, and 20 μL of diluted radioligand. The compounds are transferred from drug dilution plates into coming 96 well assay plates using a 96 well Multimek pipettor. Radioligand and membranes are added to assay plates using multidrop pipettors. Non-specific binding is determined in wells containing a final concentration of 5 μM haloperidol. The final drug concentration range in half logs is from 10 μM down to 0.1 nM.
After addition of drug, membrane, and ligand, the plates are incubated for 2 hours at room temperature. During this time 96 well Millipore filter plates (MAFBNOB50) are soaked for a least 30 minutes with 200 μL per well of 0.5% polyethyleneimine.
The 0.5% PEI is removed from filterplate wells using a TiterTek MAP aspirator and 200 μL of the incubation mixture is transferred from the incubation plate to the filterplate after mixing. This transfer is done using the 96 tip Mutimek pipettor. After transfer to the filterplate filterplates are extracted and ished twice with 220 μL per well of cold buffer on the MAP aspirator. The peel away bottoms are removed from the filterplates and 60 μL per well of microscint 20 scintillation fluid is added per well using a multidrop. […]

T1 sequence (P14416 1-414 isoform P14416-2): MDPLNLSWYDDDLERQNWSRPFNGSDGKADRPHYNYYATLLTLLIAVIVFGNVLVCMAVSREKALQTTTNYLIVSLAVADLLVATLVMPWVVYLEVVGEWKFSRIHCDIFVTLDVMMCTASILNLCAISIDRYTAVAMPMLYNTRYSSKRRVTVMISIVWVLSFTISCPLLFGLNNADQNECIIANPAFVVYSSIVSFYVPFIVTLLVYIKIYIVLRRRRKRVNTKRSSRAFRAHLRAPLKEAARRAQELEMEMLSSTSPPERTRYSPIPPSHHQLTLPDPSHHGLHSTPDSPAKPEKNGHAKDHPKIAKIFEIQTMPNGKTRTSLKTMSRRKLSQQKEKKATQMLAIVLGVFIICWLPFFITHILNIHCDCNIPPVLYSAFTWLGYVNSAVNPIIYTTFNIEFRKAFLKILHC

| melting point | Ki (Dopamine D2 receptor) [nM] | Structure (SMILES) |
| --- | --- | --- |
| 74 to 88 °C | – | Cc1cc2c(s1)Nc1ccccc1N=C2N1CCN(C)C(COc2ccccc2)C1 (stereo in doubt) [Example 271, (R)-10-(4-Methyl-3-phenoxymethyl-piperazin-1-yl)-2-methyl 4H-3-thia-4,9-diaza-benzo[f]azulene] |
| 63 °C (dec.) | 100 to 1000 | COCC[C@H]1CN(C2=Nc3ccccc3Nc3ccc(C)cc32)CCN1 [Example 199, (S)-2-Methyl-11-[3-(2-methoxy-ethyl)-piperazin-1-yl]-5H-dibenzo[b,e][1,4]diazepine] |
| 158 to 160 °C | – | COCC[C@H]1CN(C2=Nc3ccccc3Nc3ccc(C(C)C)cc32)CCN1 [Example 200, (S)-2-Isopropyl-11-[3-(2-methoxy-ethyl)-piperazin-1-yl]-5H-dibenzo[b,e][1,4]diazepine] |
| 71 to 82 °C | – | COCC[C@H]1CN(C2=Nc3ccccc3Nc3ccc(C(F)(F)F)cc32)CCN1 [Example 202, (S)-2-Trifluoromethyl-11-[3-(2-methoxy-ethyl)-piperazin-1-yl]-5H-dibenzo[b,e][1,4]diazepine] |
| 60 °C (dec.) | 100 to 1000 | COCC[C@H]1CN(C2=Nc3ccccc3Nc3ccc(C)cc32)CCN1C [Example 216, (S)-2-Methyl-11-[3-(2-methoxy-ethyl)-4-methyl-piperazin-1-yl]-5H-dibenzo[b,e][1,4]diazepine] |
| 48 to 56 °C | – | COCC[C@H]1CN(C2=Nc3ccccc3Nc3ccc(C(F)(F)F)cc32)CCN1C [Example 221, (S)-2-Trifluoromethyl-11-[3-(2-methoxy-ethyl)-4-methyl-piperazin-1-yl]-5H-dibenzo[b,e][1,4]diazepine] |
| > 250 °C (dec.) | 10 to 100 | Cc1cc2c(s1)Nc1ccccc1N=C2N1CCN[C@@H](CCO)C1.Cl.Cl [Example 240, (S)-2-[4-(2-Methyl-4H-3-thia-4,9-diazabenzo[f]azulene-10-yl)-piperazin-2-yl]ethanol dihydrochloride] |
| > 250 °C (dec.) | 100 to 1000 | Cc1cc2c(s1)Nc1ccccc1N=C2N1CCN[C@H](CCO)C1.Cl.Cl [Example 241, (R)-2-[4-(2-Methyl-4H-3-thia-4,9-diazabenzo[f]azulene-10-yl)-piperazin-2-yl]ethanol dihydrochloride] |
| 64 to 81 °C | – | Cc1cc2c(s1)Nc1ccccc1N=C2N1CCN[C@@H](COc2ccccc2)C1 [Example 244, (R)-10-(3-Phenoxymethyl-piperazin-1-yl)-2-methyl-4H-3-thia-4,9-diaza-benzo[f]azulene] |
| 198 to 202 °C (dec.) | – | COCC[C@H]1CN(C2=Nc3cc(F)c(F)cc3Nc3sc(C)cc32)CCN1 [Example 254, (S)-6,7-Difluoro-10-[3-(2-methoxy-ethyl)-piperazin-1-yl]-2-methyl-4H-3-thia-4,9-diaza-benzo[f]azulene] |
| 179 to 183 °C (dec.) | – | COCC[C@H]1CN(C2=Nc3cc(Cl)ccc3Nc3sc(C)cc32)CCN1 [Example 258, (S)-7-Chloro-10-[3-(2-methoxy-ethyl)-piperazin-1-yl]-2-methyl-4H-3-thia-4,9-diazabenzo[f]azulene] |
| 118 to 124 °C | – | Cc1cc2c(s1)Nc1ccccc1N=C2N1CCN(C)[C@@H](CO)C1 [Example 259, (R)-[1-Methyl-4-(2-methyl-4H-3-thia-4,9-diaza-benzo[f]azulen-10-yl)-piperazin-2-yl]-methanol] |
| 76 to 80 °C | – | COC[C@H]1CN(C2=Nc3ccccc3Nc3sc(C)cc32)CCN1C [Example 260, (R)-10-(3-Methoxymethyl-4-methyl-piperazin-1-yl)-2-methyl-4H-3-thia-4,9-diaza-benzo[f]azulene] |
| 74 to 88 °C | – | Cc1cc2c(s1)Nc1ccccc1N=C2N1CCN(C)[C@@H](COc2ccccc2)C1 [Example 265, (R)-10-(4-Methyl-3-phenoxymethyl-piperazin-1-yl)-2-methyl-4H-3-thia-4,9-diaza-benzo[f]azulene] |
| 55 to 65 °C | – | Cc1cc2c(s1)Nc1ccccc1N=C2N1CCN(C)[C@@H](COCc2ccccc2)C1 [Example 270, (R)-10-(3-Benzyloxymethyl-4-methyl-piperazin-1-yl)-2-methyl-4H-3-thia-4,9-diaza-benzo[f]azulene] |
